Assay results: DBAASP
≈ marks a conversion by molar mass, not a printed value. Where “and” joins values, the source holds several entries; their conditions need not be identical. Equal values may be shown once. Values belong to the compound of their own block, whether it stands above or below them.

Legend:
Assay in all cases: ≥ marks a high value that may be exact or a test limit, other limits are often not marked, values filed in µg/mL are converted to µM
[1] = test system: Salmonella typhimurium
[2] = test system: Staphylococcus aureus ATCC 29213
[3] = test system: Listeria monocytogenes
[4] = test system: Escherichia coli ATCC 25404
[5] = test system: Micrococcus luteus ATCC 10420
[6] = test system: Staphylococcus aureus ATCC 43300
[7] = test system: Staphylococcus epidermidis ATCC 9709
[8] = test system: Escherichia coli O157
[9] = test system: Helicobacter pylori
[10] = test system: Staphylococcus epidermidis
[11] = test system: Escherichia coli
[12] = test system: Staphylococcus aureus A170
[13] = test system: Salmonella enterica subsp. enterica serovar Paratyphi A
[14] = test system: Staphylococcus aureus IFO 12732
[15] = test system: Escherichia coli IFO 12734
[16] = test system: Bacillus subtilis IFO 3513
[17] = test system: Escherichia coli ATCC 25922
[18] = test system: Staphylococcus aureus ATCC 25923
[19] = test system: Salmonella enterica subsp. enterica serovar Choleraesuis CMCC 50020
[20] = test system: Bacillus subtilis 1A751
[21] = test system: Escherichia coli UB1005
[22] = test system: Staphylococcus epidermidis C621
[23] = test system: Enterococcus faecalis ATCC 29212
[24] = test system: Bacillus subtilis ATCC 6633
[25] = test system: Corynebacterium xerosis C875
[26] = test system: Pseudomonas aeruginosa ATCC 27853
[27] = test system: Escherichia coli DC2
[28] = test system: Candida albicans ATCC 64550
[29] = test system: Salmonella enterica subsp. enterica serovar Typhi
[30] = test system: Escherichia coli O157:H7
[31] = test system: Bacillus megaterium
[32] = test system: Salmonella enterica subsp. enterica serovar Typhi ATCC 5784
[33] = test system: Salmonella enterica subsp. enterica serovar Typhi DMST 22842
[34] = test system: Vibrio cholerae non-O139
[35] = test system: Lysinibacillus sphaericus TISTR 678
[36] = test system: Staphylococcus epidermidis ATCC 12228
[37] = test system: Vibrio cholerae non-O1
[38] = test system: Escherichia coli D31
[39] = test system: Candida albicans ATCC 14053
[40] = test system: Candida tropicalis ATCC 13803

MIC [1]: ≥ 64 µM
MIC [2]: 8 µM (≈ 11.5 µg/mL)
MIC [3]: ≥ 64 µM
MIC [4]: ≥ 64 µM
MIC [5]: 8 µM (≈ 11.5 µg/mL)
MIC [6]: 16 µM (≈ 23 µg/mL)
MIC [7]: 16 µM (≈ 23 µg/mL)
MIC [8]: ≥ 64 µM
Compound: CC(C)C[C@H](NC(=O)[C@H](CC(C)C)NC(=O)[C@H](Cc1cnc[nH]1)NC(=O)[C@H](CO)NC(=O)[C@H](CC(C)C)NC(=O)[C@H](C)NC(=O)[C@H](Cc1cnc[nH]1)NC(=O)[C@H](Cc1ccccc1)NC(=O)[C@H](CC(C)C)NC(=O)[C@H](C)NC(=O)CNC(=O)[C@H](CC(C)C)NC(=O)[C@@H](N)Cc1ccccc1)C(=O)O [FLGALFHALSHLL]

MIC [9]: 7.52 µM and 5.01 µM and 6.01 µM
MIC [10]: 20 µM (≈ 40 µg/mL)
MIC [11]: 7.52 µM (≈ 15 µg/mL)
MIC [3]: 20 µM (≈ 40 µg/mL)
MIC [12]: 20 µM (≈ 40 µg/mL)
MIC [13]: 7.52 µM (≈ 15 µg/mL)
Compound: C[C@@H](O)[C@H](NC(=O)[C@H](CS)NC(=O)[C@H](Cc1ccccc1)NC(=O)[C@H](CS)NC(=O)[C@H](CCCN=C(N)N)NC(=O)[C@H](CCCN=C(N)N)NC(=O)[C@H](CCCN=C(N)N)NC(=O)[C@H](Cc1ccccc1)NC(=O)CNC(=O)[C@H](CCCN=C(N)N)NC(=O)[C@H](CS)NC(=O)[C@H](CC(N)=O)NC(=O)CNC(=O)CNC(=O)[C@H](CO)NC(=O)[C@@H](N)Cc1ccccc1)C(=O)N[C@@H](CCCCN)C(N)=O [FSGGNCRGFRRRCFCTK]

MIC [21]: ≥ 32 µM
MIC [17]: > 32 µM
MIC [22]: ≥ 32 µM
MIC [23]: > 32 µM
MIC [24]: 16 µM (≈ 29.4 µg/mL)
MIC [18]: > 32 µM
MIC [25]: 4 µM (≈ 7.34 µg/mL)
MIC [26]: > 32 µM
MIC [27]: 16 µM (≈ 29.4 µg/mL)
Compound: C[C@H](NC(=O)[C@H](C)NC(=O)[C@H](CCCCN)NC(=O)[C@H](CCCCN)NC(=O)[C@@H](N)CCCCN)C(=O)N[C@@H](C)C(=O)N[C@@H](Cc1ccccc1)C(=O)N[C@@H](C)C(=O)N[C@@H](C)C(=O)N[C@@H](Cc1c[nH]c2ccccc12)C(=O)N[C@@H](C)C(=O)N[C@@H](C)C(=O)N[C@@H](Cc1ccccc1)C(=O)N[C@@H](C)C(=O)N[C@@H](CCCCN)C(=O)N[C@@H](CCCCN)C(=O)N[C@@H](CCCCN)C(N)=O [KKKAAAFAAWAAFAKKK]

Further lines, the compound ahead of its results:

Compound: CC[C@H](C)[C@H](N)C(=O)N[C@@H](CC(C)C)C(=O)N1CCC[C@H]1C(=O)N[C@@H](Cc1c[nH]c2ccccc12)C(=O)N[C@@H](CCCCN)C(=O)N[C@@H](Cc1c[nH]c2ccccc12)C(=O)N1CCC[C@H]1C(=O)N[C@@H](Cc1c[nH]c2ccccc12)C(=O)N[C@@H](CC(C)C)C(=O)N1CCC[C@H]1C(=O)N[C@@H](CC(C)C)C(=O)N[C@@H](CCCN=C(N)N)C(=O)N[C@@H](CCCN=C(N)N)C(N)=O [ILPWKWPWLPLRR]
MIC [14]: 14.2 µM (≈ 25 µg/mL)
MIC [15]: ≥ 56.8 µM
MIC [16]: 28.4 µM (≈ 50 µg/mL)

Compound: CC[C@H](C)[C@H](NC(=O)[C@H](CCCCN)NC(=O)[C@@H](NC(=O)[C@H](CC(C)C)NC(=O)[C@@H](NC(=O)[C@H](CCCCN)NC(=O)[C@H](CC(C)C)NC(=O)[C@H](Cc1ccccc1)NC(=O)[C@H](Cc1ccccc1)NC(=O)[C@H](CCCCN)NC(=O)[C@@H](N)CCCCN)C(C)C)[C@@H](C)O)C(=O)N[C@@H](CCCN=C(N)N)C(=O)N[C@H]1CSSC[C@@H](C(=O)N[C@@H](CCCN=C(N)N)C(=O)N[C@H](C(=O)O)[C@@H](C)O)NC(=O)CNC(=O)CNC(=O)[C@H](C)NC(=O)[C@H](C(C)C)NC(=O)[C@H](CCCCN)NC1=O [KKFFLKVLTKIRCKVAGGCRT]
MIC [17]: 3.34 µM (≈ 7.99 µg/mL)
MIC [18]: 3.34 µM (≈ 7.99 µg/mL)
MIC [19]: 6.67 µM (≈ 16 µg/mL)
MIC [20]: ≥ 53.4 µM

Compound: CC(C)C[C@H](NC(=O)[C@H](Cc1c[nH]c2ccccc12)NC(=O)[C@@H](N)CCCCN)C(=O)N[C@@H](CCCN=C(N)N)C(=O)N[C@@H](CCCN=C(N)N)C(=O)N[C@H](C(=O)N[C@@H](Cc1c[nH]c2ccccc12)C(=O)N[C@@H](CCCN=C(N)N)C(=O)N[C@@H](Cc1c[nH]c2ccccc12)C(=O)N[C@@H](Cc1c[nH]c2ccccc12)C(=O)N[C@@H](CCCN=C(N)N)C(N)=O)C(C)C [KWLRRVWRWWR]
MIC [17]: 15 µM (≈ 25.9 µg/mL)
MIC [28]: ≥ 100 µM
MIC [18]: 2.5 µM (≈ 4.32 µg/mL)
MIC [26]: 20 µM (≈ 34.5 µg/mL)

Compound: CC(C)[C@H](NC(=O)CNC(=O)[C@@H](N)CC(N)=O)C(=O)N[C@@H](CCC(N)=O)C(=O)N1CCC[C@H]1C(=O)N[C@@H](CCCCN)C(=O)N[C@@H](Cc1ccc(O)cc1)C(=O)O [NGVQPKY]
MIC [29]: 31.1 µM and ≥ 64 µM
MIC [30]: ≥ 64 µM
MIC [31]: ≥ 64 µM
MIC [32]: ≥ 64 µM
MIC [33]: ≥ 248 µM
MIC [34]: ≥ 248 µM
MIC [17]: > 248 µM
MIC [10]: 31.1 µM (≈ 25 µg/mL)
MIC [18]: > 248 µM
MIC [35]: ≥ 64 µM
MIC [36]: > 248 µM
MIC [37]: ≥ 248 µM
MIC [26]: > 248 µM

Compound: CC[C@H](C)[C@@H]1NC(=O)CNC(=O)[C@H](CCCCN)NC(=O)[C@H](CC(N)=O)NC(=O)[C@H](CCCN=C(N)N)NC(=O)[C@H](CCCN=C(N)N)NC(=O)[C@@H](NC(=O)[C@H](CO)NC(=O)[C@H](CCC(N)=O)NC(=O)[C@H](CO)NC(=O)[C@H](CC(N)=O)NC(=O)[C@H](CCCN=C(N)N)NC(=O)[C@@H](NC(=O)CNC(=O)[C@@H](N)CCC(N)=O)C(C)C)CSSC[C@@H]2NC(=O)[C@H](CCCCN)NC(=O)[C@H](C(C)C)NC(=O)[C@H](CCC(N)=O)NC(=O)[C@H](C)NC(=O)CNC(=O)[C@H](CC(C)C)NC(=O)[C@@H]3CSSC[C@H](NC1=O)C(=O)N[C@@H](C(C)C)C(=O)N1CCC[C@H]1C(=O)N[C@@H]([C@@H](C)CC)C(=O)N[C@@H](CCCN=C(N)N)C(=O)N[C@@H](CSSC[C@@H](C(=O)N[C@@H](CCCN=C(N)N)C(=O)N[C@@H](CCCN=C(N)N)C(=O)N[C@@H](CCCCN)C(=O)O)NC2=O)C(=O)N1CCC[C@H]1C(=O)NCC(=O)N[C@@H](CO)C(=O)N[C@@H](CCSC)C(=O)N[C@@H](CCCN=C(N)N)C(=O)N[C@@H](CCC(N)=O)C(=O)N[C@@H]([C@@H](C)CC)C(=O)NCC(=O)N[C@@H]([C@@H](C)O)C(=O)N3 [QGVRNSQSCRRNKGICVPIRCPGSMRQIGTCLGAQVKCCRRK]
MIC [38]: 4.87 µM (≈ 22.6 µg/mL)
MIC [39]: 9.66 µM (≈ 44.8 µg/mL)
MIC [2]: 19.1 µM (≈ 88.6 µg/mL)
MIC [40]: 4.87 µM (≈ 22.6 µg/mL)
MIC [26]: 19.1 µM (≈ 88.6 µg/mL)
